In paper PMC7380166, “How to Study the Metabolism of New Psychoactive Substances for the Purpose of Toxicological Screenings—A Follow-Up Study Comparing Pooled Human Liver S9, HepaRG Cells, and Zebrafish Larvae” (Frontiers in Chemistry, 2020):

Key:
hCES1c = target: T1, hCES1c (Homo sapiens, UniProt P23141); assay: Esterases activity screening, hCES1c; assay type: in vitro ADME; set-up: key: +, detected; –: −, not detected; conditions: 100 μM 4F-MDMB-BINACA, 0.2 mg protein/ml, duplicate
T1 construct: purchased Corning
T1 sequence (P23141 18-566 isoform P23141-3 limits assumed): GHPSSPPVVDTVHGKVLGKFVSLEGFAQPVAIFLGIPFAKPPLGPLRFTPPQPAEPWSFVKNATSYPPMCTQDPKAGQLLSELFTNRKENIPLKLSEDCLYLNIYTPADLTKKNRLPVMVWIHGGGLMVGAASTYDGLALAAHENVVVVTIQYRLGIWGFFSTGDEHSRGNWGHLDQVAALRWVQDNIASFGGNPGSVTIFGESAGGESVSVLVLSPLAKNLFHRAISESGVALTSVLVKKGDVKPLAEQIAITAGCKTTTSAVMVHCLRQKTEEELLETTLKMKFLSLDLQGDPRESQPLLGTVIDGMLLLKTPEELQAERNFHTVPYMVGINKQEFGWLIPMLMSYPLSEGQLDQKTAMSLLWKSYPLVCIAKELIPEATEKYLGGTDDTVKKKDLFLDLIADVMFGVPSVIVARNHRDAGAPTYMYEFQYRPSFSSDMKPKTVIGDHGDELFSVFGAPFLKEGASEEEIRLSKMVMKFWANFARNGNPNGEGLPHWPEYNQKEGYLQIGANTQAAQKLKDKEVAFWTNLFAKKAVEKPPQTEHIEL
Procedure: (§1) Experiments were performed in accordance with a previous study (Meyer et al., [2015]) with minor modifications. The final volume per reaction tube was 100 μl with a final 4F-MDMB-BINACA concentration of 100 μM and enzyme concentration of 0.2 mg protein/ml for hCES1b, hCES1c, and hCES2. Incubations with pHLM and pHLS9 (0.2 mg protein/ml, each) were performed in a similar manner. Additionally, incubations with human plasma (50 μl pooled human plasma, 40 μl phosphate buffer, and 10 μl substrate) were performed. The reactions were started by adding the enzyme-containing preparation and terminated with an equal volume of ice-cold acetonitrile containing diazepam-d5 (100 μM) as an internal standard. Only plasma incubations were terminated by addition of a three-fold volume of ice-cold acetonitrile. The reaction mixtures were centrifuged at 18,407 × g for 15 min, and then supernatants were transferred to autosampler vials, and 5 μl was injected onto the LC-HRMS/MS system. Negative control incubations without enzyme were prepared to identify non-metabolically formed compounds. All incubations were done in duplicate.

hCES2 = target: T2, hCES2 (Homo sapiens, UniProt O00748); assay: Esterases activity screening, hCES2; assay type: in vitro ADME; set-up: key: +, detected; –, not detected; conditions: 100 μM 4F-MDMB-BINACA, 0.2 mg protein/ml, duplicate
T2 construct: purchased Corning
T2 sequence (O00748 27-559): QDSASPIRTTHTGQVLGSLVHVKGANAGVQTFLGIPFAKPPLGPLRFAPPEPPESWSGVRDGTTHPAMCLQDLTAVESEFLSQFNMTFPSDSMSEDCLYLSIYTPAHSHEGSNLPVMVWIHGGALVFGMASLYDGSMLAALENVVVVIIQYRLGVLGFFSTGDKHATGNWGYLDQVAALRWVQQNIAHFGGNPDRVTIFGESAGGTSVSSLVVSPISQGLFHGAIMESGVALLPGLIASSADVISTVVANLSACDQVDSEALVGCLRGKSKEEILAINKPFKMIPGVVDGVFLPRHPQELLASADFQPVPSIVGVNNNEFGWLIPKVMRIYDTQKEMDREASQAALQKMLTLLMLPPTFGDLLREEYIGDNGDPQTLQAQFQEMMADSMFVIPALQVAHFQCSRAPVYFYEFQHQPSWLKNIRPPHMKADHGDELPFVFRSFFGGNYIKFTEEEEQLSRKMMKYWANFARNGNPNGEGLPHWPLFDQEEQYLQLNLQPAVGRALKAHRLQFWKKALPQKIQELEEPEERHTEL
Procedure: as §1

[1] = Esterases activity screening, pHLM; assay type: in vitro ADME, human; set-up: key: +, detected; –: −, not detected; conditions: 100 μM 4F-MDMB-BINACA, 0.2 mg protein/ml, duplicate
Procedure: as §1

[2] = Esterases activity screening, pHLS9; assay type: in vitro ADME, human; set-up: key: +, detected; –: −, not detected; conditions: 100 μM 4F-MDMB-BINACA, 0.2 mg protein/ml, duplicate
Procedure: as §1

[3] = Esterases activity screening, pooled human blood plasma; assay type: in vitro ADME; set-up: key: +, detected; –, not detected; conditions: 100 μM 4F-MDMB-BINACA, duplicate
Procedure: as §1

zebrafish larvae = assay: In vivo maximum-tolerated concentration (MTC) study in zebrafish larvae; set-up: species or system zebrafish (Danio rerio); conditions: for Survival rate: 24-h treatment, fifteen larvae
How it was run: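 AB wild-type larvae, one per well in Danieau's medium (pH 7.1–7.3) at 28°C, exposed from 4 dpf for 24 h to 0, 0.01, 0.1, 1, 10, 50 or 100 μM with 1% DMSO.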

[4] = [2019], cited from earlier work

Row | Compound | Detection of metabolite in incubation with hCES1c (hCES1c) | Detection of metabolite in incubation with hCES2 (hCES2) | Detection of metabolite in incubation with pHLM [1] | Detection of metabolite in incubation with pHLS9 [2] | Detection of metabolite in incubation with pHBP [3] | Survival rate (zebrafish larvae; 0.01 μM, larvae 4 dpf) [%] | Survival rate (zebrafish larvae; 0.1 μM, larvae 4 dpf) [%] | Survival rate (zebrafish larvae; 1 μM, larvae 4 dpf) [%] | Survival rate (zebrafish larvae; 10 μM, larvae 4 dpf) [%] | Survival rate (zebrafish larvae; 50 μM, larvae 4 dpf) [%] | Survival rate (zebrafish larvae; 100 μM, larvae 4 dpf) [%] | Concentration considered non-toxic for zebrafish larvae (4 dpf) (zebrafish larvae; 24 h exposure via medium) [µM] | Malformations (zebrafish larvae; up to 100 μM, larvae 4 dpf, 24 h) | Number of metabolites identified in human urine samples ([4]; 17 human urine samples, conjugate cleavage, ref Haschimi et al.) | Number of metabolites identified in blood and urine samples ([4]; four blood and four urine samples, ref Krotulski et al.)
1 | CC(C)(C)C(NC(=O)c1nn(CCCCF)c2ccccc12)C(=O)O (centres unmarked) [MB8] | + | – | + | + | – |  |  |  |  |  |  |  |  |  | 
2 | O=C(O)c1nn(CCCCF)c2ccccc12 [MB1] | + | – | + | + | – |  |  |  |  |  |  |  |  |  | 
3 | COC(=O)C(NC(=O)c1nn(CCCCF)c2ccccc12)C(C)(C)C (centres unmarked) [4F-MDMB-BINACA, methyl 2-[1-(4-fluorobutyl)-1H-indazole-3-carbonyl]amino-3,3-dimethylbutanoate] |  |  |  |  |  | 100 | 100 | 100 | 100 | 73 | 53 | 25 | No malformations | 13 | nine
